One assay has as its system Candida albicans. Kind of assay: […] isolate Candida albicans assessed as inhibition of microbial growth incubated for 24 hrs by spectrophotometry. In kind it is functional.
Another assay deals with Escherichia coli. Put plainly: Antibacterial activity against Escherichia coli CIP54.8T assessed as inhibition of microbial growth incubated for 24 hrs by spectrophotometry. Format: functional.
A further assay has as its system Staphylococcus aureus. Put plainly: Antibacterial activity against Staphylococcus aureus CIP53.156 assessed as inhibition of microbial growth incubated for 24 hrs by spectrophotometry. In kind it is functional.
A further assay relates to KB. Put plainly: Cytotoxicity against human KB cells assessed as cell viability after 72 hrs by MTT assay. Format: functional, cell-based. For orientation: Formazan colour is commonly taken as a measure of viable cells.

Non-standard residues stand in square brackets, D forms with d. Residues, ends and D or L forms follow the SMILES beside them. Phe(ol) = N[C@H](CO)Cc1ccccc1; Aib = CC(C)(N)C(=O)O

These results are taken from ChEMBL document CHEMBL4842306, “Pentadecaibins I-V: 15-Residue Peptaibols Produced by a Marine-Derived Trichoderma sp. of the Harzianum Clade” (J Nat Prod, 2021).

A word on the MIC: it is the lowest concentration found to suppress growth. What is called IC50 is the concentration at which inhibition is half-maximal. As to `CC[C@@](C)(NC(=O)[C@H](CCC(N)=O)NC(=O)C(C)(C)NC(=O)[C@H](CC(C)C)NC(=O)[C@H](C)NC(=O)CNC(=O)C(C)(C)NC(C)=O)C(=O)N[C@@H](CC(C)C)C(=O)NC(C)(C)C(=O)N[C@@H](C)C(=O)NC(C)(C)C(=O)NC(C)(C)C(=O)NC(C)(C)C(=O)N[C@@H](CCC(N)=O)C(=O)N[C@H](CO)Cc1ccccc1`, the MIC with Candida albicans, with Escherichia coli and with Staphylococcus aureus was greater than 100 µg/mL throughout. Besides, the half-maximal inhibitory concentration (IC50) with KB worked out at 800 nM.
On to `CC[C@@](C)(NC(=O)[C@H](CCC(N)=O)NC(=O)C(C)(C)NC(=O)[C@H](CC(C)C)NC(=O)[C@H](C)NC(=O)CNC(=O)C(C)(C)NC(C)=O)C(=O)N[C@H](C(=O)NC(C)(C)C(=O)N[C@@H](C)C(=O)NC(C)(C)C(=O)NC(C)(C)C(=O)NC(C)(C)C(=O)N[C@@H](CCC(N)=O)C(=O)N[C@H](CO)Cc1ccccc1)C(C)C`, for which the MIC with Candida albicans is greater than 100 µg/mL; with Escherichia coli, greater than 100 µg/mL; in the assay with Staphylococcus aureus it was 25 µg/mL. Also, in the assay on KB, the IC50 was 800 nM.
Consider `CC(=O)NC(C)(C)C(=O)N1CCC[C@H]1C(=O)NC(C)(C)C(=O)N[C@@H](C)C(=O)NC(C)(C)C(=O)N[C@@H](C)C(=O)N[C@@H](CCC(N)=O)C(=O)NC(C)(C)C(=O)N[C@H](C(=O)NC(C)(C)C(=O)NCC(=O)N[C@@H](CC(C)C)C(=O)NC(C)(C)C(=O)N1CCC[C@H]1C(=O)N[C@H](C(=O)NC(C)(C)C(=O)NC(C)(C)C(=O)N[C@H](CCC(N)=O)C(=O)N[C@H](CCC(N)=O)C(=O)N[C@H](CO)Cc1ccccc1)C(C)C)C(C)C`, for which the half-inhibitory concentration (IC50) in the assay with KB was determined as 9000 nM.
In the case of `CC[C@@](C)(NC(=O)[C@H](CC(C)C)NC(=O)[C@H](C)NC(=O)CNC(=O)C(C)(C)NC(C)=O)C(=O)N[C@@H](CCC(N)=O)C(=O)N[C@](C)(CC)C(=O)N[C@H](C(=O)NC(C)(C)C(=O)N[C@@H](C)C(=O)NC(C)(C)C(=O)NC(C)(C)C(=O)NC(C)(C)C(=O)N[C@@H](CCC(N)=O)C(=O)N[C@H](CO)Cc1ccccc1)C(C)C`, the values for the MIC in the assay on Candida albicans, with Escherichia coli and with Staphylococcus aureus were greater than 100 µg/mL, greater than 100 µg/mL and 25 µg/mL, respectively. For the same compound, the IC50 with KB was 700 nM.
Turning to `CC(=O)NC(C)(C)C(=O)NCC(=O)N[C@@H](C)C(=O)N[C@@H](CC(C)C)C(=O)NC(C)(C)C(=O)N[C@@H](CCC(N)=O)C(=O)NC(C)(C)C(=O)N[C@@H](CC(C)C)C(=O)NC(C)(C)C(=O)N[C@@H](C)C(=O)NC(C)(C)C(=O)NC(C)(C)C(=O)NC(C)(C)C(=O)N[C@@H](CCC(N)=O)C(=O)N[C@H](CO)Cc1ccccc1` (Ac-[Aib]GAL[Aib]Q[Aib]L[Aib]A[Aib][Aib][Aib]Q[Phe(ol)]), the MIC with Candida albicans, in the assay with Escherichia coli and in the assay with Staphylococcus aureus was greater than 100 µg/mL throughout. Also, the IC50 in the assay on KB was determined as 4300 nM.
For the compound `CC(=O)NC(C)(C)C(=O)NCC(=O)N[C@@H](C)C(=O)N[C@@H](CC(C)C)C(=O)NC(C)(C)C(=O)N[C@@H](CCC(N)=O)C(=O)NC(C)(C)C(=O)N[C@H](C(=O)NC(C)(C)C(=O)N[C@@H](C)C(=O)NC(C)(C)C(=O)NC(C)(C)C(=O)NC(C)(C)C(=O)N[C@@H](CCC(N)=O)C(=O)N[C@H](CO)Cc1ccccc1)C(C)C` (Ac-[Aib]GAL[Aib]Q[Aib]V[Aib]A[Aib][Aib][Aib]Q[Phe(ol)]), the MIC was greater than 100 µg/mL in the assay with Candida albicans, greater than 100 µg/mL in the assay on Escherichia coli and 25 µg/mL in the assay with Staphylococcus aureus. The half-inhibitory concentration (IC50) in the assay with KB turned out to be 2400 nM.
